| SMILES | melting point [°C] |
| --- | --- |
| COc1cc2ncnc(N3CCc4ccc(-c5ccccc5)cc43)c2cc1OC | 175 to 177 |
| CCc1cc2c(s1)-n1c(C)nnc1C(CCCC(=O)Nc1ccccc1)N=C2c1ccc(Cl)cc1 (configuration not stated) | 238 to 240 |
| CC1(C)CCC(C)(C)c2cc(C#Cc3ccc(S(C)(=O)=O)cc3)ccc21 | 153 to 155 |
| Cc1cc(C2=NOC(c3cc(Cl)cc(Cl)c3)(C(F)(F)F)C2O)ccc1C(=O)O (configuration not stated) | 215 to 217 |
| O=C(CN1CCCC1)c1ccc(F)cc1 | 49 to 50 |
| COc1ccc([C@H](Sc2cc(Cc3ccccc3)ccc2N)[C@@H](O)C(=O)O)cc1 | 155 to 158 |
| COc1ccc(-c2nc(CNc3ccccc3)nc3cc(OC)c(OC)cc23)cc1OC | 199 to 200 |
| O=C(Cc1cccnc1)[N+]1([O-])CCC(C2c3ccc(Cl)cc3CCc3cccnc32)CC1 (configuration not stated) | 117 to 118 |
| COc1cc(CO)c([N+](=O)[O-])cc1OCCCCCCOC(C)=O | > 220 |
| CN(C)C1CCN(c2ccc(NC(=O)n3ccc4cc(Oc5cc(CC(N)=O)ncn5)ccc43)cc2C(F)(F)F)C1 (configuration not stated) | 182 to 184 |
| NC(CC1CCCCC1)C(O)C(O)C1CC1 (configuration not stated) | 141 to 142 |
| O=C1N(Cc2cc(-c3ccc(Cl)cc3)oc2C(F)(F)F)c2ccccc2C12COc1cc3c(cc12)OCO3 (configuration not stated) | 114 to 116 |
| O=Cc1cccc(Oc2cccc(F)c2)n1 | 42 to 43 |
| O=C(O)c1ccc(Nc2cc3c4c(c2)CCCC4CCC3)cc1 | 204 to 205 |
| O=C(CCCI)ON1C(=O)CCC1=O | 86 to 87 |
| O=C1C2=C(CCCC2)C(=O)N1c1cc(O)c(Cl)cc1Cl | 155 to 157 |
| c1cc(OC2CN3CCC2CC3)no1 (configuration not stated) | 80 to 81 |
| CCOc1cc(Cn2cc(CCC(=O)O)c(-c3ccccc3)c2)cc(OCc2nc(-c3ccccc3)oc2C)c1 | 126 to 127 |
| Nc1ccc(C2CCNCC2)cc1 | 85 to 87 |
| CS(=O)(=O)N(Cc1ccc(Cl)cc1)CC(O)(Cn1cncn1)c1ccc(Cl)cc1Cl (configuration not stated) | 121 to 122 |
| O=C(O)Cc1ccc(OCCNC(=O)C2Cc3ccccc3N2S(=O)(=O)c2ccc(-c3ccc(F)cc3)cc2)cc1 (configuration not stated) | 81 |

| SMILES | melting point [°C] |
| --- | --- |
| CCOCc1cc2ccc(OCc3ccccc3)cc2o/c1=N\c1ccccc1 | 94 to 95 |
| N#Cc1c(C#N)c(Oc2ccc3ccccc3c2)c(Oc2ccc3ccccc3c2)c(Oc2ccc3ccccc3c2)c1Oc1ccc2ccccc2c1 | 188 to 190 |
| COC(=O)[C@H](Cc1ccc(NC(=S)NCCCc2ccccc2)cc1)NC(=O)[C@@H]1CCCN1S(=O)(=O)c1ccc(C)cc1 | 74 to 80 |
| CC(C)(C)C(=O)Oc1ccc(C(=O)c2ccc(OC(=O)C(C)(C)C)cc2OC(=O)C(C)(C)C)cc1 | 94 to 96 |
| NS(=O)(=O)c1ccco1 | 120 to 122 |
| CC(=O)OC1C(C)OC(OC(=N)C(Cl)(Cl)Cl)C(OC(C)=O)C1OC(C)=O (configuration not stated) | 60 to 63 |
| CN(C)CCCCCCCCCCC(=N)NC(=S)Nc1ccc(Cl)cc1 | 130 to 132 |
| COc1nc2cc(Br)c(Br)c(NS(C)(=O)=O)c2nc1OC | 186 to 187 |
| Clc1c2c(nc3ccc(C4CCCCC4)cc13)CCCC2 | 89 to 91 |
| CNc1nnc(C(C)(CCl)CCl)s1 | 105 to 107 |
| c1cncc(-c2ccnc(Nc3cccc(-n4ccnc4)c3)n2)c1 | 95 to 120 |
| O=C(NCCOc1ccc(CC(Oc2ccccc2)C(=O)O)cc1)c1ccc(-c2ccc(F)cc2)cc1 (configuration not stated) | 195 to 196 |
| CC1C(=O)N(CC(N)=O)C(C)(C)N1C(=O)CN (configuration not stated) | 118 |
| COc1cc2c(cc1OCCN(C)C)N(C(=O)c1ccc(-c3ccc(-c4noc(C)n4)cc3C)cc1)CC2 | 140 to 141 |
| CCOC(=O)c1ccc(-c2ccc(-c3cccc(OC)c3)c(-c3ccc4c(c3)C(C)(C)CCC4(C)C)c2)cc1 | 116 to 118 |
| COc1ncc(F)c2n[nH]c(=S)n12 | 166 |
| CC(NC(=O)OCc1ccccc1)C(=O)NC1C(C(=O)O)OC(n2cnc3c(NC(=O)c4ccccc4)ncnc32)C1O (configuration not stated) | 154 to 156 |
| CCCCCCCCCCCCCCCCNc1ccc(C2=NCCO2)cc1 | 123 to 125 |
| COc1ccc(N2CCc3c2c2cccc(OC)c2[nH]c3=O)c(C)c1 | 188 to 191 |
| CCCCCCCCCCCCc1ccc(S(=O)(=O)Nc2nnc(CO)s2)cc1 | 138 to 139 |
| Fc1cccc(F)c1-c1cnnc(-c2ccc(-c3ccc(OC(F)(F)F)cc3)cc2)n1 | 159 to 160 |

Other lines, results leading:

| melting point [°C] | SMILES |
| --- | --- |
| 154 to 155 | COc1cccc(CC(=O)O)c1OCCn1cc(C(=O)NCc2ccc(Cl)cc2Cl)c(OC(C)C)n1 |
| 221 to 223 | CC(C)=Nc1c(-c2ccccc2)[nH]c(C)c1C(N)=O |
| 280 to 282 | Cn1ccc(-c2sc(NC(=O)c3ccncc3)nc2-c2ccco2)cc1=O |
| 77 to 80 | Cc1c(F)cc(C(=O)OC(C)(C)C)cc1I |
| 81 to 82 | CCN(CC)C(=O)Nc1cccc(Cl)c1 |
| 209 to 212 | CCCNc1nc(N)nc(-c2ccccc2)c1-c1ccc(=O)n(C(C)C)n1 |
| 109 to 110 | N=C(Nc1cccc(NC(=O)/C=C/c2ccc(Cl)cc2)c1)c1ccccc1 |
| 143 to 144 | CC(CO)Nc1ccc(-c2cccc(C(F)(F)F)c2)nn1 (configuration not stated) |
| 139 to 140 | CC(=O)CSc1ccc(Cl)cc1C(=O)O |
| 182 to 183 | Cc1cc(C)nc(Sc2ccnc3cc(Cl)cc(Cl)c23)n1 |
| 228 to 229 | CCOC(=O)c1cc(-c2ccc(C#N)cc2)[nH]c1N |
| 119 to 122 | CC(=O)O[C@H]1C[C@@H](n2ncc(Cl)c(Cl)c2=O)[C@H](O)[C@@H]1O (racemic) |
| 91 to 93 | CCOC(=O)COc1cccc2c1CCC2=O |
| 62 to 65 | CCc1ccc(-c2ccccc2)cc1O |
| 184 to 186 | COC1(c2cc(F)cc(OCc3ccc(C(=O)O)cc3)c2)CCOCC1 |
| 203 to 204 | CCOC(=O)c1cn(Cc2ccccc2OC)c2c(F)c(F)c(F)cc2c1=O |
| 97 to 99 | COc1ccc2c(c1)OC(c1ccc(Cl)cc1)CC2=O (configuration not stated) |
| 292 to 294 | Cn1nnnc1-c1cn(C)c2cc(Br)ccc2c1=O |
| 120 to 121 | CCNC(=O)c1c([Si](C)(C)C)ccc(C(F)F)c1Cl |
| 77.5 to 79 | CCONC(CC)=C1C(=O)CC(C(C)(C)Sc2ccc(C)cc2)CC1=O (configuration not stated) |

| melting point [°C] | SMILES |
| --- | --- |
| 53 to 55 | Cc1cc2c(c(C)c1N)C(c1ccc(C(C)C)cc1)CO2 (configuration not stated) |
| 86 | CCN1CCCC1CNC(=O)c1c(O)c(OC)c2occc2c1OC (configuration not stated) |
| 32 to 34 | C=CCSc1nnc(OC)c2ccccc12 |
| 88 to 90 | CC1(C)Oc2cccc(O)c2O1 |
| 227 to 229 | CCn1nc(-c2ncc(N)nc2-c2ccccc2)ccc1=O |
| 75 to 76 | CCOC(=O)COc1ccc([N+](=O)[O-])cc1 |
| 140 | CCOC(=O)c1cnc2c(cnn2Cc2ccncc2)c1O |
| 151 to 152 | CC(C)NC(=O)N1CC(Oc2ccc(C(F)(F)F)cc2)C1 |
| 128 to 130 | Clc1cccc(Oc2ccc(OCc3cc(C4CC4)no3)cc2)n1 |
| 139 to 141 | CCCOC(=O)C1=C(C)NC(C(OC)OC)=C(C(=O)OC)C1c1ccccc1C#N (configuration not stated) |
| 122 to 124 | OCC1Oc2cccc(F)c2OC1CO (configuration not stated) |
| 122 to 124 | CCOC(=O)C1=CC(C)(C(=O)N(C)C)SC1N (configuration not stated) |
| 73 | CNc1ccc(CCc2cc(OC)ccc2OC)cc1C(=O)OC |
| 142 to 144 | CC(O)C(Oc1ccc(NC(=O)NC(=O)c2ccccc2Cl)cc1)c1ccccc1 (configuration not stated) |
| 217 to 219 | O=[N+]([O-])c1cnc(-c2nc3ccccc3[nH]2)n1CCO |
| 106 to 108 | CN(C)c1ccncc1CCCOc1ccc(OCCCC(=O)O)cc1 |
| 95 to 96.5 | Cc1c(Br)c(Br)nn1C(C)C(=O)N(C)C(C)C (configuration not stated) |
| 218 to 220 | CC1CC(=O)NN=C1c1ccc(NC(=O)c2ccccc2O)cc1 (configuration not stated) |
| 109 to 110 | CCCOc1ccccc1-c1nc(C)cc(O)n1 |
| 211 to 212 | COCc1[nH]c(=O)[nH]c1C(=O)c1ccc(OC)cc1 |

| melting point [°C] | SMILES |
| --- | --- |
| 212 to 213 | O=C(Cn1c(=O)n(-c2ccc3c(c2)OCO3)c2ncccc21)N1CCOCC1 |
| 233 to 235 | Cc1cc(CCC(=O)O)cc(-c2nc(=O)c3ccccc3s2)n1 |
| 170 to 172 | COC(=O)CN(C)C(=O)c1c2ccc(Cl)ccc-2[nH]c1=O |
| 184 to 185 | COC(=O)Nc1c(C(=O)OC)[nH]c2c(C)ccc(C)c12 |
| 112 to 114 | N#CSc1nc(C(F)(F)C(F)F)nc2ccccc12 |
| 89 to 91 | COc1cccc(CC(=O)NCc2ccccc2Cl)c1 |
| 103 to 106 | CC(C)(C)OC(=O)Nc1ccc(Cl)c(O)c1 |
| 89 to 90 | CN(NCc1ccccc1)c1cnn(-c2cccc(C(F)(F)F)c2)c(=O)c1 |
| 152 to 153 | Cc1ccc(NC(=N)Nc2nc(-c3ccccc3)cs2)cc1 |
| 122 to 123 | CC(=O)N(C)N(C(=O)OC(C)(C)C)c1ccc(CO)cc1 |
| 269 to 273 | O=C(O)c1cc2c3cc(Br)c(Br)cc3n(Cc3ccccc3)c2s1 |
| 37 to 38 | O=S(CCC=C(F)F)NCc1ccc(Cl)cc1 (configuration not stated) |
| 86 to 89 | CCNc1ncccc1-c1sccc1-c1cccnc1F |
| 121 to 122 | O=C(NN=C(c1ccc(Cl)cc1)c1ccc(OC(F)(F)C(Cl)Cl)cc1)c1ccccc1 |
| 239 to 240 | CN(c1cccc2cc(C(N)=S)[nH]c12)S(=O)(=O)c1cccs1 |
| 192 to 195 | CCOC(=O)c1cn(-c2ccccn2)c2oc(CN3CCOCC3)cc2c1=O |
| 138 to 140 | Cc1ccc(C23CC(C2)C(=O)N(C)C3=O)cc1 |
| 102 | COC(=O)c1ccc(O)c([C@H](CCN(C(C)C)C(C)C)c2ccccc2)c1 |
| 165 to 167 | CCC[C@@H]1O[C@](/C=C/C2CC2)(C(F)(F)F)c2cc(Cl)ccc2NC1=O (relative stereo) |
| 119 to 123 | COc1cc2c(c(Cl)c1Cl)SC(C(C)C)C2O (configuration not stated) |

Source: a melting point compilation (Tetko et al.; mined from patent text by program, amines drawn as free bases though some values may be those of a salt)
